The target of this assay is T1, Human HPK1, catalytic domain (Homo sapiens, UniProt Q92918).
T1 construct: purchased Carna
T1 sequence (Q92918 1-346): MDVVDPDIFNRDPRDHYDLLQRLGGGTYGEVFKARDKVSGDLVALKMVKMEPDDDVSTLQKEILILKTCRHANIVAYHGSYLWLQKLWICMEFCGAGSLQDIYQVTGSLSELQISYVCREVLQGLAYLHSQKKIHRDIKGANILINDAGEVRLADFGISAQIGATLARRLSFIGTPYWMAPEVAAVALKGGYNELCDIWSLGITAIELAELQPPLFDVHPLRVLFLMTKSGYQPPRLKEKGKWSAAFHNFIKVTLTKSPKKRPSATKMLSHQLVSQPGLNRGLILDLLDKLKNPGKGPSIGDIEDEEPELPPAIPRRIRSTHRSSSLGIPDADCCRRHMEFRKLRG
Kind of assay: HPK1-SLP76 TR-FRET assay. It counts as biochemical. The settings on record: 75 pM HPK1, 10 uM ATP, 10 nM SLP76, 30 min compound pre-incubation. For orientation: In TR-FRET formats the signal depends on donor and acceptor labels being close together.

In general, IC50 refers to the concentration that inhibits the measured activity by half. A higher IC50 goes with lower potency.

`COc1cc2c(cc1Nc1ncc(C(N)=O)c(Nc3ccccc3C(=O)NC3CC3)n1)CN(C)CC2` [Example 7-118, 4-((2-(cyclopropylcarbamoyl)phenyl)a-mino)-2-((6-methoxy-2-methyl-1,2,3,4-tetrahydroisoquinolin-7-yl)amino)pyrimidine-5-carboxamide] showed a half-inhibitory concentration (IC50) of 2.74 nM.
Then `Cn1cc(Nc2ncc(C(N)=O)c(Nc3cccc4c3CCNC4=O)n2)c(OCC(F)F)n1` [Example 7-55, 2-{[3-(2,2-difluoroethoxy)-1-methyl-1H-pyrazol-4-yl]amino}-4-[(1-oxo-1,2,3,4-tetrahydroisoquinolin-5-yl)amino]pyrimidine-5-carboxamide], with 15.3 nM.
Take `COc1cc2c(cc1Nc1ncc(C(N)=O)c(Nc3ccccc3Br)n1)CN(C(=O)C(C)C)CC2` [Example 12-3, 4-[(2-bromophenyl)amino]-2-{[6-methoxy-2-(2-methylpropanoyl)-1,2,3,4-tetrahydroisoquinolin-7-yl]amino}pyrimidine-5-carboxamide]: the half-inhibitory concentration (IC50) was determined as 598 nM.
For the molecule `COc1cc2c(cc1Nc1ncc(C(N)=O)c(Nc3cccc(CN)c3)n1)CN(C)CC2` [Example 2-2, 4-{[3-(aminomethyl)phenyl]-amino}-2-[(6-methoxy-2-methyl-1,2,3,4-tetrahydroisoquinolin-7-yl)amino]pyrimidine-5-carboxamide], 0.34 nM corresponded to half-maximal inhibition (IC50).
Molecule `CNCc1ccccc1Nc1nc(Nc2cc3c(cc2OC)CCN(C)C3)ncc1C(N)=O` [Example 2-4, 2-[(6-methoxy-2-methyl-1,2,3,4-tetrahydroisoquinolin~7-yl)amino]-4-({2-[(methylamino)methyl]-phenyl}amino)pyrimidine-5-carboxamide] had a half-maximal inhibitory concentration (IC50) of 0.63 nM.
The molecule `CCC1[C@@H](C(=O)Nc2ncc(C(N)=O)c(Nc3ccccc3Br)n2)[C@@H]1c1cnn(C)c1` (stereo partly drawn) [Example 22-2, 4-[(2-bromophenyl)amino]-2-{[(1R,3R)-2-ethyl-3-(1-methyl-1H-pyrazol-4-yl)cyclopropane-1-carbonyl]amino}pyrimidine-5-carboxamide] came in with a half-inhibitory concentration (IC50) of 468 nM.
The molecule `COc1cc2c(cc1Nc1ncc(C(N)=O)c(Nc3ccccc3C(=O)Nc3ccccc3)n1)CN(C)CC2` [Example 7-117, 2-((6-methoxy-2-methyl-1,2,3,4-tetrahydroisoquinolin-7-yl)amino)-4-((2-(phenylcarbamoyl)phenyl)amino) pyrimidine-5-carboxamide] registered an IC50 of 54.8 nM.
`CC(C)n1cc(Nc2ncc(C(N)=O)c(Nc3cccc4c3CCNC4=O)n2)cn1` [Example 7-50, 4-[(1-oxo-1,2,3,4-tetrahydroisoquinolin-5-yl)amino]-2-{[1-(propan-2-yl)-1H-pyrazol-4-yl]amino}pyrimidine-5-carboxamide] yielded a 50% inhibitory concentration (IC50) of 6.24 nM.
Molecule `Cn1cc(Nc2ncc(C(N)=O)c(Nc3cccc4c3CCNC4)n2)c(=O)[nH]1` [Example 7-11, 2-[(1-methyl-3-oxo-2,3-dihydro-1H-pyrazol-4-yl)amino]-4-[(1,2,3,4-tetrahydroisoquinolin-5-yl)amino]pyrimidine-5-carboxamide] had a 50% inhibitory concentration (IC50) of 111 nM. Compared with the last molecule, the IC50 is about 18-fold higher.
`COc1cc2c(cc1Nc1ncc(C(N)=O)c(Nc3ccccc3SC(F)(F)F)n1)CN(C)CC2` [Example 7-113, 2-[(6-methoxy-2-methyl-1,2,3,4-tetrahydroisoquinolin-7-yl)amino]-4-({2-[(trifluoromethyl)sulfanyl]phenyl}amino)pyrimidine-5-carobxamide] returned an IC50 of 0.13 nM.
For the molecule `COc1cc2c(cc1Nc1ncc(C(N)=O)c(Nc3cccc(F)c3)n1)CN(C)CC2` [Example 7-18, 4-[(3-fluorophenyl)amino]-2-[(6-methoxy-2-methyl-1,2,3,4-tetrahydroisoquinolin-7-yl)amino]pyrimidine-5-carboxamide], the IC50 is 0.29 nM.
Then `CCOc1ccccc1CNc1nc(Nc2cc3c(cc2OC)CCN(C)C3)ncc1C(N)=O` [Example 26-23, 4-{[(2-ethoxyphenyl)methyl]amino}-2-[(6-methoxy-2-methyl-1,2,3,4-tetrahydroisoquinolin-7-yl)amino]pyrimidine-5-carboxamide], with 3.69 nM; and `COC(=O)c1ccccc1Nc1nc(Nc2cc3c(cc2OC)CCN(C)C3)ncc1C(N)=O` [Example 7-94, methyl 2-({5-carbamoyl-2-[(6-methoxy-2-methyl-1,2,3,4-tetrahydroisoquinolin-7-yl)amino]pyrimidin-4-yl}amino)benzoate], with 0.88 nM; and `NC(=O)c1cnc(Nc2cnn(C3CCC3)c2)nc1Nc1cccc2c1CCNC2=O` [Example 7-51, 2-[(1-cyclobutyl-1H-pyrazol-4-yl)amino]-4-[(1-oxo-1,2,3,4-tetrahydroisoquinolin-5-yl)amino]pyrimidine-5-carboxamide], with 4.21 nM.
Molecule `COc1cc(C(=O)N2CCC(N(C)C)C2)ccc1Nc1ncc(C(N)=O)c(Nc2ccccc2C(F)(F)F)n1` (centres unmarked) [Example 11-2, 2-((4-(3-(dimethylamino)pyrrolidine-1-carbonyl)-2-methoxyphenyl)amino)-4-((2-(trifluoromethyl)phenyl)amino)pyrimidine-5-carboxamide] yielded a 50% inhibitory concentration (IC50) of 199 nM.
On to `Cc1cccc(F)c1Nc1nc(Nc2cc3c(cc2Cl)CCN(C)C3)ncc1C(N)=O` [Example 4-5, 2-[(6-chloro-2-methyl-1,2,3,4-tetrahydroisoquinolin-7-yl)amino]-4-[(2-fluoro-6-methylphenyl)amino] pyrimidine-5-carboxamide], for which it took 0.61 nM to reach half-maximal inhibition (IC50). This IC50 is about 330-fold lower than that of the molecule before.
Molecule `COc1nn(C)cc1Nc1ncc(C(N)=O)c(Nc2cccc3c2CCNC3)n1` [Example 7-9, 2-[(3-methoxy-1-methyl-1H-pyrazol-4-yl)amino]-4-[(1,2,3,4-tetrahydroisoquinolin-5-yl)amino]pyrimidine-5-carboxamide] gave an IC50 of 1.17 nM.
In turn, `COc1cc2c(cc1Nc1ncc(C(N)=O)c(Nc3ccccc3CC(C)c3ccccc3)n1)CN(C)CC2` (centres unmarked) [Example 13-7, 2-[(6-methoxy-2-methyl-1,2,3,4-tetrahydroisoquinolin-7-yl)amino]-4-{[2-(2-phenylpropyl)phenyl]amino}pyrimidine-5-carboxamide] had a half-maximal inhibitory concentration (IC50) of 215 nM.
The molecule `NC(=O)c1cnc(Nc2ccc3c(c2)COCC3)nc1Nc1cccc2c1CCNC2` [Example 7-16, 2-[(3,4-dihydro-1H-2-benzopyran-7-yl)amino]-4-[(1,2,3,4-tetrahydroisoquinolin-5-yl)amino]pyrimidine-5-carboxamide] showed an IC50 of 0.14 nM.
`CCn1nc(C)cc1Nc1nc(Nc2cc3c(cc2OC)CCN(C)C3)ncc1C(N)=O` [Example 7-79, 4-((1-ethyl-3-methyl-1H-pyrazol-5-yl)amino)-2-((6-methoxy-2-methyl-1,2,3,4-tetrahydroisoquinolin-7-yl)amino)pyrimidine-5-carboxamide] showed a 50% inhibitory concentration (IC50) of 105 nM. Compared with the last molecule, the IC50 is about 750-fold higher.
In the case of `NC(=O)c1cnc(Nc2ccc(C(F)(F)F)cc2)nc1Nc1cccc2c1CCNC2=O` [Example 25-7, 4-[(1-oxo-1,2,3,4-tetrahydroisoquinolin-5-yl)amino]-2-{[4-(trifluoromethyl)phenyl]amino}pyrimidine-5-carboxamide] it was 474 nM.
Consider `COc1cc2c(cc1Nc1ncc(C(N)=O)c(Nc3cccc4c3CCN(C)C4)n1)CN(C)CC2` [Example 16-1, 2-((6-methoxy-2-methyl-1,2,3,4-tetrahydroisoquinolin-7-yl)amino)-4-((2-methyl-1,2,3,4-tetrahydroisoquinolin-5-yl)amino)pyrimidine-5-carboxamide], for which half-maximal inhibition (IC50) was put at 0.09 nM.
Molecule `CCc1ccccc1Nc1ncc(C(N)=O)c(Nc2cccc3c2CCNC3=O)n1` [Example 25-15, 2-[(2-ethylphenyl)amino]-4-[(1-oxo-1,2,3,4-tetrahydroisoquinolin-5-yl)amino]pyrimidine-5-carboxamide] had a half-inhibitory concentration (IC50) of 210 nM.
Then `COc1cc2c(cc1Nc1ncc(C(N)=O)c(NCc3cccc(F)c3F)n1)CN(C)CC2` [Example 26-9, 4-{[(2,3-difluorophenyl)methyl]amino}-2-[(6-methoxy-2-methyl-1,2,3,4-tetrahydroisoquinolin-7-yl)amino]pyrimidine-5-carboxamide], with 0.95 nM; and `COc1cc2c(cc1Nc1ncc(C(N)=O)c(Nc3cccc(Cl)c3F)n1)CN(C)CC2` [Example 4-12, 4-[(3-chloro-2-fluorophenyl)amino]-2-[(6-methoxy-2-methyl-1,2,3,4-tetrahydroisoquinolin-7-yl)amino]pyrimidine-5-carboxamide], with 0.65 nM; and `CNC(=O)c1cccc(Nc2nc(Nc3cc4c(cc3Cl)CCN(C)C4)ncc2C(N)=O)c1` [Example 7-39, 2-[(6-chloro-2-methyl-1,2,3,4-tetrahydroisoquinolin-7-yl)amino]-4-{[3-(methylcarbamoyl)phenyl]amino} pyrimidine-5-carboxamide], with 57.4 nM.
Turning to `COc1cc2c(cc1Nc1ncc(C(N)=O)c(Nc3ccccc3OC(F)(F)F)n1)CN(C)CC2` [Example 7-115, 2-[(6-methoxy-2-methyl-1,2,3,4-tetrahydroisoquinolin-7-yl)amino]-4-{[2-(trifluoromethoxy)phenyl]amino} pyrimidine-5-carboxamide], half-maximal inhibition (IC50) was put at 0.2 nM.
`COc1cc2c(cc1Nc1ncc(C(N)=O)c(NCc3cccc(C(F)(F)F)c3)n1)CN(C)CC2` [Example 26-35, 2-[(6-methoxy-2-methyl-1,2,3,4-tetrahydroisoquinolin-7-yl)amino]-4-({[3-(trifluoromethyl)phenyl]methyl}amino)pyrimidine-5-carboxamide] returned a 50% inhibitory concentration (IC50) of 52.8 nM.
In the case of `COc1cc2c(cc1Nc1ncc(C(N)=O)c(N[C@H]3c4ccccc4C[C@H]3CO)n1)CN(C)CC2` [Example 26-62, 4-{[(1R,2R)-2-(hydroxymethyl)-2,3-dihydro-1H-inden-1-yl]amino}-2-[(6-methoxy-2-methyl-1,2,3,4-tetrahydroisoquinolin-7-yl)amino]pyrimidine-5-carboxamide] it was 15.6 nM.

These data come from patent US20230416225A1, “DIAMINOPYRIMIDINE CARBOXAMIDE INHIBITORS OF HPK1” (MERCK SHARP & DOHME LLC, priority 2020, published 2023).
